# Assay results: patent publication US20020095030A1, “FLIP GENES AND FLIP PROTEINS” (priority 1997, published 2002)
# Peptide text beside a SMILES is read from it. * marks the point of attachment. Cbz = O=C(OCc1ccccc1)*; CH2F = FC*
# System: 293T-cells
# Assay: Apoptosis by over-expression of TRAMP in 293T cells (Cell Death Detection ELISA)
# Type: cell-based, human
# Details: 25 μM in medium
smiles,measurement,value
COC(=O)C[C@H](NC(=O)[C@H](C)NC(=O)[C@@H](NC(=O)OCc1ccccc1)C(C)C)C(=O)CF [z-VAD-fmk] (Cbz-Val-Ala-Asp(OMe)-CH2F),protection of TRAMP over expressing cells,100%
